Drawing on article PMC6150310, “Synthesis and Structure–Activity Relationships of 4-Morpholino-7,8-Dihydro-5H-Thiopyrano[4,3-d]pyrimidine Derivatives Bearing Pyrazoline Scaffold” (Molecules : A Journal of Synthetic Chemistry and Natural …, 2017), this text covers IC50 and melting point for six compounds.

The structures appear in SMILES notation.

The subject of data set [1] is four cancer cell lines (A549, PC-3, MCF-7, HepG2). Description: MTT cytotoxicity assay, four cancer cell lines together. The following applies: Homo sapiens, range over A549, PC-3, MCF-7, HepG2, read-out: IC50 values against four cancer cell lines. The format is cell-based. On the procedure:
(§1) Taking GDC-0941 as the reference compound, the target compounds (7a–l and 8a–l) were evaluated for the cytotoxicity against four cancer cell lines A549, PC-3, MCF-7, and HepG2 by 3-(4,5-dimethylthiazolyl-2)-2,5-diphenyltetrazolium bromide (MTT) cell proliferation assay. In order to confirm the types of target compound, selective or mixed-type inhibitors, the selected compound, 8d, was measured for its PI3Kα kinase inhibitory activity together with reference compounds GDC-0941 and PI103 via the Kinase-Glo® Luminescent […] assay. The results expressed as inhibition rates or IC50 values are summarized in Table 1 and Table 2, where the values are the average of at least two independent experiments.
The in vitro cytotoxic activities of Compounds 7a–l and 8a–l were evaluated with A549, PC-3, HepG2, and MCF-7 cell lines by the standard MTT assay, with GDC-0941 as a positive control. The cancer cell lines were cultured in minimum essential medium (MEM) supplement with 10% fetal bovine serum (FBS). […] The formazan crystals were dissolved in 100 µL of DMSO in each well, and the absorbency at 492 nm (for absorbance of MTT formazan) and 630 nm (for the reference wavelength) was measured with an enzyme linked immunosorbent assay (ELISA) reader (MR-96A Mindray Elisa Microplate Reader, Guangzhou, China). […]

A further data set addresses PI3Kα (Homo sapiens, UniProt P42336). Description: PI3Kα Kinase-Glo Luminescent Kinase Assay. The format is biochemical. The following applies: 1 µM ATP, 60 min, average of two determinations. (Kinase-Glo reads ATP consumption through a luciferase reaction.)
The test system of the next data set is MCF-7 cell line. Description: MTT cytotoxicity assay, MCF-7. It is filed as cell-based. The following applies: Homo sapiens, MCF7, 72 h, average of two determinations, NA = No Activity. On the procedure:
as §1
(§2) The in vitro cytotoxic activities of Compounds 7a–l and 8a–l were evaluated with A549, PC-3, HepG2, and MCF-7 cell lines by the standard MTT assay, with GDC-0941 as a positive control. The cancer cell lines were cultured in minimum essential medium (MEM) supplement with 10% fetal bovine serum (FBS). Approximately, 4 × 10^3 cells, suspended in MEM medium, were plated onto each well of a 96-well plate and incubated in 5% CO2 at 37 °C for 24 h. The test compounds at the indicated final concentrations were added to the culture medium, and cell cultures continued for 72 h. Fresh MTT was added to each well at a terminal concentration of […] and incubated with cells at 37 °C for 4 h. The formazan crystals were dissolved in 100 µL of DMSO in each well, and the absorbency at 492 nm (for absorbance of MTT formazan) and 630 nm (for the reference wavelength) was measured with an enzyme linked immunosorbent assay (ELISA) reader (MR-96A Mindray Elisa Microplate Reader, Guangzhou, China). All compounds were tested three times in each of the cell lines. The results expressed as inhibition rates or IC50 were the averages of two determinations and calculated using the Bacus Laboratories Inc. Slide Scanner (Bliss) software (the Bacus Laboratories Inc. Slide Scanner (BLISS) system, Lombard, IL, USA).
On the technique in general: Formazan colour is commonly taken as a measure of viable cells.

The test system of another data set is PC-3 cell line. Description: MTT cytotoxicity assay, PC-3. The format is cell-based. The following applies: Homo sapiens, PC-3, 72 h, average of two determinations, NA = No Activity. On the procedure: as §1, §2
The next data set concerns A549 cell line. Description: MTT cytotoxicity assay, A549. The following applies: Homo sapiens, A549, 72 h, average of two determinations, NA = No Activity. The format is cell-based. On the procedure: as §1, §2
The subject of a further data set is HepG2 cell line. Description: MTT cytotoxicity assay, HepG2. The format is cell-based. The following applies: Homo sapiens, HepG2, 72 h, average of two determinations, NA = No Activity. The procedure:
as §1, §2

Chain of PI3Kα (P42336 whole entry): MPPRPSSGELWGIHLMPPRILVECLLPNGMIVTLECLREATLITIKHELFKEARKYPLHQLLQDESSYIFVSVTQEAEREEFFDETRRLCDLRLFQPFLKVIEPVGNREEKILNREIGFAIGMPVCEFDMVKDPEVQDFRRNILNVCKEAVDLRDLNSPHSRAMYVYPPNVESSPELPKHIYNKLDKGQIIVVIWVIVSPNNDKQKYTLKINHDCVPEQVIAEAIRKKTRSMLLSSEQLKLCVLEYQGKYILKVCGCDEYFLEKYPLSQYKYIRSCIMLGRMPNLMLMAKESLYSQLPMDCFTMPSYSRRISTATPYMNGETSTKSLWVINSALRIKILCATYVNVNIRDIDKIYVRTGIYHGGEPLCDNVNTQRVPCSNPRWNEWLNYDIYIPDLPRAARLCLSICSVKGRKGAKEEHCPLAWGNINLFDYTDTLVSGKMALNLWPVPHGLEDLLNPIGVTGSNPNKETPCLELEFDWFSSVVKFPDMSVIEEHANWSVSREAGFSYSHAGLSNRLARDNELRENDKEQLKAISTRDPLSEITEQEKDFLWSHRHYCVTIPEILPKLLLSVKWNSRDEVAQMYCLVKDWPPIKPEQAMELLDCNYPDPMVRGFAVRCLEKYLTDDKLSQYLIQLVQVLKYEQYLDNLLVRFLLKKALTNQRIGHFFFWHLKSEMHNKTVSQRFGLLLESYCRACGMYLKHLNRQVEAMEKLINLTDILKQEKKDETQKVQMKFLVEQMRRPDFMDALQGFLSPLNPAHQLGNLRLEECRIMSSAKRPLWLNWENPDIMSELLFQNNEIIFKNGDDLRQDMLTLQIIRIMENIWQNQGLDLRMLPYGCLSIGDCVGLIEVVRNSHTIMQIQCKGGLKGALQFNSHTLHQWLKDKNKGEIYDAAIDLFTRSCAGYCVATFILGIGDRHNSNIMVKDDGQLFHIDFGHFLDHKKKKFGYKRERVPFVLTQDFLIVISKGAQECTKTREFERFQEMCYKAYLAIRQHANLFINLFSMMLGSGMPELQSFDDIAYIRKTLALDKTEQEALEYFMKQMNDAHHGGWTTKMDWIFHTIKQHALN
Chain of PI3Kα (P27986 whole entry partner): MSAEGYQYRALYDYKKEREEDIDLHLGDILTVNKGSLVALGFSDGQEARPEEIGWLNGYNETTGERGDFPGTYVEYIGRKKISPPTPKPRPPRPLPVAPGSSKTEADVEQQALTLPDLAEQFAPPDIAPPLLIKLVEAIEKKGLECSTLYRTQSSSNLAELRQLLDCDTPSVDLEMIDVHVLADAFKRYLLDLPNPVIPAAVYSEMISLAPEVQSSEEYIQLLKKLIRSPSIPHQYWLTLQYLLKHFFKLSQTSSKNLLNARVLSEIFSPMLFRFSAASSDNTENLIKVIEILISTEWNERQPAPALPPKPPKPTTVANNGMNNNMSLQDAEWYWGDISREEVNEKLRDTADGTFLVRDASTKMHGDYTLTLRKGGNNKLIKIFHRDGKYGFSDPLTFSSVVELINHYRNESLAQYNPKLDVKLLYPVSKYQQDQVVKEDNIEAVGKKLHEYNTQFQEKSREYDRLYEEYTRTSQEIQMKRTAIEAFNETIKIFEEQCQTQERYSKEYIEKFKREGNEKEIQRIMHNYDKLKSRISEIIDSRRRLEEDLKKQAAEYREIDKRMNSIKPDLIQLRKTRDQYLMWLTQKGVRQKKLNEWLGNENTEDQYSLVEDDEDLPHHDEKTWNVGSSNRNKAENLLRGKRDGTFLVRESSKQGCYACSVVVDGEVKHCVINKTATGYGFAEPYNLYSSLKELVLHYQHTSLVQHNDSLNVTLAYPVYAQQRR

In general, IC50 refers to the concentration that gives 50% inhibition. As to `O=S1(=O)CCc2nc(N3N=C(c4ccc(F)cc4)C[C@@H]3c3ccc(Cl)c(Cl)c3)nc(N3CCOCC3)c2C1` (racemic) [Compound 8d, (R)-2-(5-(3,4-Dichlorophenyl)-3-(4-fluorophenyl)-4,5-dihydro-1H-pyrazol-1-yl)-4-morpholino-7,8-dihydro-5H-thiopyrano[4,3-d]pyrimidine 6,6-dioxide], the IC50 is 6.02 to 10.3 µM in data set [1], 8.38 ± 0.21 µM against PI3Kα and 10.3 ± 0.94 µM in the data set on MCF-7 cell line.
The term melting point denotes the temperature of the solid-liquid transition. Take `O=S1(=O)CCc2nc(N3N=C(c4ccc(F)cc4)C[C@@H]3c3ccc(F)cc3)nc(N3CCOCC3)c2C1` [Compound 8g, (R)-2-(3,5-bis(4-Fluorophenyl)-4,5-dihydro-1H-pyrazol-1-yl)-4-morpholino-7,8-dihydro-5H-thiopyrano[4,3-d]pyrimidine 6,6-dioxide]: the melting point lay in the range of 246 to 249 °C. In the data set on PC-3 cell line, this compound registered an IC50 of 21.8 ± 0.67 µM. For the same compound, in the data set with A549 cell line, the IC50 was 29.1 ± 0.49 µM. Also, the IC50 in the data set with MCF-7 cell line was 35.3 ± 0.39 µM. In the data set with HepG2 cell line, this compound gave an IC50 of 36.01 ± 0.18 µM.
As to `COc1ccc(C2=NN(c3nc4c(c(N5CCOCC5)n3)CSCC4)[C@@H](c3ccc(F)cc3)C2)cc1` [Compound 7h, (R)-4-(2-(5-(4-Fluorophenyl)-3-(4-methoxyphenyl)-4,5-dihydro-1H-pyrazol-1-yl)-7,8-dihydro-5H-thiopyrano[4,3-d]pyrimidin-4-yl)morpholine], the melting point lay within 116 to 118 °C. The IC50 in the data set on PC-3 cell line stood at 29.8 ± 0.89 µM. In addition, the midpoint of inhibition in the data set with A549 cell line, the IC50, lay at 26.7 ± 0.88 µM. In the data set with MCF-7 cell line, this compound returned an IC50 of 30.3 ± 0.88 µM. In the data set on HepG2 cell line, this compound had an IC50 of 20.5 ± 0.67 µM.
Take `O=S1(=O)CCc2nc(N3N=C(c4ccc(Br)cc4)C[C@@H]3c3ccc(Cl)c(Cl)c3)nc(N3CCOCC3)c2C1` [Compound 8c, (R)-2-(3-(4-Bromophenyl)-5-(3,4-dichlorophenyl)-4,5-dihydro-1H-pyrazol-1-yl)-4-morpholino-7,8-dihydro-5H-thiopyrano[4,3-d]pyrimidine 6,6-dioxide]: the melting point is 162 to 163 °C. In addition, half-maximal inhibition in the data set with PC-3 cell line (IC50) required 37.58 ± 0.22 µM. Moreover, the concentration for half-maximal inhibition (IC50) in the data set with A549 cell line turned out to be 27.8 ± 1.18 µM. Further, half-maximal inhibition with MCF-7 cell line (IC50) required 43.86 ± 0.15 µM. This compound also came in with an IC50 in the data set with HepG2 cell line of 0.06 ± 0.01 µM.
On the same counts, the results for `Cc1ccc(C2=NN(c3nc4c(c(N5CCOCC5)n3)CSCC4)[C@@H](c3ccc(Cl)c(Cl)c3)C2)cc1` [Compound 7b, (R)-4-(2-(5-(3,4-Dichlorophenyl)-3-(p-tolyl)-4,5-dihydro-1H-pyrazol-1-yl)-7,8-dihydro-5H-thiopyrano[4,3-d]pyrimidin-4-yl)morpholine] are 194 to 196 °C, 14.1 ± 3.45 µM, 24.2 ± 0.74 µM, 42.6 ± 1.75 µM and 27.8 ± 0.99 µM.
`Fc1ccc(C2=NN(c3nc4c(c(N5CCOCC5)n3)CSCC4)[C@@H](c3ccc(Cl)c(Cl)c3)C2)cc1` [Compound 7d, (R)-4-(2-(5-(3,4-Dichlorophenyl)-3-(4-fluorophenyl)-4,5-dihydro-1H-pyrazol-1-yl)-7,8-dihydro-5H-thiopyrano[4,3-d]pyrimidin-4-yl)morpholine] returned a melting point of 207 to 211 °C. The compound further returned an IC50 in the data set with PC-3 cell line of 8.91 ± 0.72 µM. In the data set with A549 cell line, this compound had an IC50 of 6.02 ± 1.22 µM. In addition, in the data set on MCF-7 cell line, the IC50 was 10.3 ± 0.94 µM. In the data set on HepG2 cell line, this compound displayed an IC50 of 8.39 ± 1.91 µM.
